Positions of bridges follow the written chain, without caps; N, C: chain ends. No end group written: not given here.
Columns and labels:
adenylyl cyclase (AC) = settings: cited from earlier work
ovariectomized rat model = settings: cited from earlier work
[1] = test system: antibodies which have binding specificity for cyclic analogs of hPTH (HRP-labeled anti-C-terminal antibody plus biotinylated anti-N-terminal antibody); test: two-site sandwich ELISA for [Leu^27]cyclo(Glu^22-Lys^26)hPTH-(1-31); design: species or system rabbit; settings: for detection in the two-site sandwich ELISA (cross-reaction), OD at 450 nm: peptides at 10,000, 1,000 and 100 pg/ml in BSA based buffer matrix, FIG. 3
Experimental: Streptavidin was weighed and diluted to 20 mg/L with phosphate buffer, 0.2 ml of this solution was added to each well of Corning® 96 Well Polystyrene Microplate. The plates were incubated at room temperature for 18-22 hours. The plates were then washed and a stabile/blocking buffer containing BSA was added. The plates were again incubated at room temperature for four hours. The plates were finally dried at <30% humidity. […] The peptide was diluted with a bovine serum albumin and normal bovine serum based buffer matrix to a final concentration of 1600 pg/ml, 400 pg/ml, 100 pg/ml, 25 pg/ml and 6 pg/ml. […] The above antigen and antibodies were incubated in the streptavidin coated well for 3 hours at room temperature with shaking at 170 rpm. After incubation, each well was washed with an ELISA wash buffer. 200 μL of tetra methyl benzidine (TMB) was then added into each well. The wells were incubated for 20 min at room temperature and then 100 μL of a stop solution was added into each well. The Microplates were read with a microtiter plate reader (VERSAmaxTM, Molecular Device, Inc.) at an absorption wavelength of 450 nm. A standard curve was obtained by plotting the optical density (OD) at 450 nm against the correspondent Ostabolin-C standard concentration. […] The OD at 450 nm values were read by a microtiter plate reader ([…], Molecular Device, Inc.) (FIG. 3).

Substance	AC stimulating activity (adenylyl cyclase (AC))	restoration of bone loss (ovariectomized rat model)	detection in the two-site sandwich ELISA (cross-reaction), OD at 450 nm [1]	standard curve, optical density (OD) at 450 nm against standard concentration ([1]; peptide standards 1600, 400, 100, 25 and 6 pg/ml, FIG. 2)
hPTH-(1-31)-NH2	has only AC stimulating activity	fully active	–	–
hPTH-(1-31)	–	–	not able to detect	–
hPTH-(1-84)	–	–	not able to detect	–
[Leu^27]cyclo(Glu^22-Lys^26)hPTH-(1-31) (SVSEIQLMHNLGKHLNSMERVEWLRKLLQDV-NH2; lactam 22-26; N-terminus assumed; SMILES CC[C@H](C)[C@H](NC(=O)[C@H](CCC(=O)O)NC(=O)[C@H](CO)NC(=O)[C@@H](NC(=O)[C@@H](N)CO)C(C)C)C(=O)N[C@@H](CCC(N)=O)C(=O)N[C@@H](CC(C)C)C(=O)N[C@@H](CCSC)C(=O)N[C@@H](Cc1c[nH]cn1)C(=O)N[C@@H](CC(N)=O)C(=O)N[C@@H](CC(C)C)C(=O)NCC(=O)N[C@@H](CCCCN)C(=O)N[C@@H](Cc1c[nH]cn1)C(=O)N[C@@H](CC(C)C)C(=O)N[C@@H](CC(N)=O)C(=O)N[C@@H](CO)C(=O)N[C@@H](CCSC)C(=O)N[C@@H](CCC(=O)O)C(=O)N[C@@H](CCCNC(=N)N)C(=O)N[C@H](C(=O)N[C@H]1CCC(=O)NCCCC[C@@H](C(=O)N[C@@H](CC(C)C)C(=O)N[C@@H](CC(C)C)C(=O)N[C@@H](CCC(N)=O)C(=O)N[C@@H](CC(=O)O)C(=O)N[C@H](C(N)=O)C(C)C)NC(=O)[C@H](CCCNC(=N)N)NC(=O)[C@H](CC(C)C)NC(=O)[C@H](Cc2c[nH]c3ccccc23)NC1=O)C(C)C) [cyclic analog of hPTH, cyclized between Glu^22 and Lys^26]	–	–	dose responsive manner	dose responsive standard curve
hPTH-(1-34)	–	–	not able to detect	–
